Data published in US8772463B2, “Fluorescent dye-labeled glucose bioprobe, synthesis method and usage thereof” (SNU R&DB Foundation, priority 2007, dated 2014).

Assays:
A549 cells [1] = assay: Fluorescence imaging analysis of competitive probe uptake; type: cell-based, human; conditions: probe 12.5 μM
Experimental: Also, NIH/3T3, A549, C2C12 and 3T3/L1 cells, each having a population of 4×10^4 cells, were cultured on 35 mm cell culture dishes (BD Falcon™ Cell Culture Dish; BD Bioscience, CA, USA). Two days later, the cell culture medium was replaced with a glucose-depleted medium (DMEM, glucose free, GIBCO) supplemented with 0 mM, 11 mM or 55 mM D-glucose and 10 μM GB2-Cy3. After incubation at 37° C. for 30 min, the cells on the cover slips in the 35-mm cell culture dishes were washed twice with cold PBS and the cover slips were mounted on the caster of a fluorescence microscope (Olympus IX71). During observation under the fluorescence microscope, the cells were maintained at 37° C. in the chamber. Fluorescence images of 35-50 cells were taken by CCD camera (Axiocam MRm, Germany) and each cell was measured for fluorescence intensity using the image data analysis program Image-Pro® Plus (MediaCybernetics, USA). As ROIs (regions of interest), areas which encompassed cells within phase-contrast images were drawn using Image-Pro® Plus. Image-Pro® Plus analyzed CCD camera images to produce the digitized mean of fluorescence intensity within the ROIs that the present inventors had established. The background intensity was subtracted from the detected fluorescence intensity to give the fluorescence intensity value that a cell contained. In this manner, the fluorescence intensity was digitized for performing various experiments.
NIH/3T3 and A549 cells were cultured on microscope cover glasses in 35 mm cell culture dishes and subjected to fluorescence imaging analysis according to the protocol.

A549 cells [2] = assay: Direct competition of Cy3-Glc-α uptake with D-glucose / L-glucose; type: cell-based, human; conditions: 37° C.
Experimental: 1×10^4 cells were cultured on a Lab-Tek glass chamber slide (Nalge Nunc International, Naperville, Ind., USA) in 35 mm cell culture dish. After 24 h, the cells were treated for each experimental purpose. Then, the medium was replaced with RPMI 1640 medium containing 12.5 μM of Cy3-Glc-α. The cells were exposed to Cy3-Glc-α for 40 min, then washed with PBS 3 times. Finally, the glass chamber slide was taken from culture dish and loaded on the fluorescence microscope (Axiovert 200, Carl Zeiss, Germany). Fluorescence images of 35-50 cells were taken by CCD camera (Axiocam MRm, Germany) and fluorescence intensity of each cell was measured by Axiovision (program for data analysis). An area as ROIs (regions of interest) which contains a cell in phase-contrast image was drawn using Axiovision. Axiovision analyzed CCD camera images and provided the digitized mean of fluorescence intensity in the ROIs that the present inventors had established. The present inventors subtracted the background intensity from the fluorescence intensity to get the fluorescence intensity value that a cell contained. With the method described above, the present inventors digitized fluorescence intensity and performed various experiments. […]

cells = assay: Cell viability, CCK-8 kit; type: cell-based; conditions: Cy3-Glc-α 12.5 μM
Experimental: (2) Therefore, Cy3-Glc-α should not affect cell viability. The viability of cells treated with Cy3-Glc-α (12.5 μM) by using a CCK-8 kit (Cell Counting Kit-8, Dojindo, Japan) was measured by using an ELISA plate reader (ELx800™, BioTex, USA) DP. CCK-8 is a colorimetric assay for determining the number of viable cells in cell proliferation and cytotoxicity assays. The principle of measuring cell viability of CCK-8 is the same as that of MTT. However, CCK-8 is more sensitive than MTT.

NIH/3T3 cells = assay: FACS-based flow cytometric analysis of probe uptake with/without 11 mM D-glucose; type: cell-based, murine; conditions: probe 5 μM; glucose-depleted condition normalized to 100
Experimental: FACS (Fluorescence Activated Cell Sorting)-based flow cytometric analysis was used to compare cellular uptake efficiency in NIH/3T3 cells among the glucose probe [2-(N-Cy3-piperazinoethyl)]-α-D-glucose (GB2-Cy3), synthesized in Example 2, the conventional fluorescent glucose probe 2-NBDG and the glucose probe Cy3-Glc-α, synthesized in Example 1.
NIH/3T3 cells were cultured on 10 cm cell culture dishes and transferred in a volume of 3×10^5 cells into each FACS tube (5 mL, BD). They were washed once with cold PBS before incubation at 37° C. for 30 min in 11 mM D-glucose-containing PBS or glucose-free PBS in the presence of the bioprobe [GB2-Cy3 (5 μM), 2-NBDG (5 μM or 50 μM) or Cy3-Glc-α (5 μM)]. Cells that were incubated without the bioprobes were used as a negative control. After being washed with cold PBS, 1×10^4 NIH/3T3 cells were analyzed on FACSCalibur™ (FACS-based flow cytometer). GBs-Cy3 was detected by FL2 channels. Raw data of 1×10^4 cells are shown in histograms, with the mean values thereof given in the graph of FIG. 21.

SMILES: C[N+]1=C(/C=C/C=C2/N(CCCCC(=O)NCCOCCOCCNCCOC3OC(CO)C(O)C(O)C3O)c3ccccc3C2(C)C)C(C)(C)c2ccccc21 [Cy3-Glc-α, [2-(N-Cy3-3,6-dioxaoctane-1,8-diaminoethyl)]-α-D-glucose]
- cellular uptake versus D-glucose concentration (A549 cells [1]): decreased in the cellular uptake of the glucose analogues in D-glucose dose-dependent manners
- change in the fluorescent intensity of ROIs when D-glucose changed from 10 mM to 55 mM (A549 cells [1]): approximately 5%
- fluorescent intensity of treated cells, GB2-Cy3 normalized to 100 (A549 cells [1]): 4
- uptake versus L-glucose in the medium (A549 cells [2]; 50 mM L-glucose): not influenced by the concentration of L-glucose
- uptake versus concentration of D-glucose in the medium (A549 cells [2]; RPMI 1640 lacking glucose, 10 mM or 50 mM D-glucose): decreased as the concentration of D-glucose in the medium increased
- cell viability (cells): does not affect cell viability
- reduction in cellular uptake due to 11 mM D-glucose (NIH/3T3 cells): about 50%
